This passage reports EC50 results from US12134610B2, “Somatostatin subtype-2 receptor (SST2R) targeted therapeutics and uses thereof” (priority 2022, dated 2024).

Starred links: 1 amine or outer side, 2 acyl side, 3 side chain; linkers in the order of their positions; H or OH if unused. Non-standard residues stand in square brackets, D forms with d. Residues, ends and D or L forms follow the SMILES beside them. *: point of attachment. X4 = Cc1cc(F)cc(-c2cnc(NCCNC(=O)CCOCCOCCOCCOCCC(=O)*)c(-c3nc4ccc(Cl)cc4[nH]3)c2N2CCC(N)CC2)c1; X1 = Cc1cc(F)cc(-c2cnc(NCCNC(=O)CCOCCC(=O)*)c(-c3nc4ccc(Cl)cc4[nH]3)c2N2CCC(N)CC2)c1; Dolaproine = CO[C@@H]([C@@H]1CCCN1)[C@@H](C)C(=O)O; Dil = CC[C@H](C)[C@H](NC)[C@@H](CC(=O)O)OC; PABC = O=C(OCc1ccc(N[*:1])cc1)[*:2]; X2 = C[C@@H](N*)[C@@H](O)c1ccccc1; Cya = N[C@@H](CS(=O)(=O)O)C(=O)O; Cit = NC(=O)NCCC[C@H](N)C(=O)O; NMeV = CN[C@H](C(=O)O)C(C)C

Common to all, as to assay type: cell-based
Assay [1] has as its target T1, human somatostatin receptor subtype 2 (Homo sapiens, UniProt P30874).
T1 construct: expressed in transfected cells
Nature of the assay: Functional cAMP assay for SSTR2 agonists (HTRF) in CHO-K1 cells. The following applies: CHO-K1 cells stably expressing human SST2, 20 min; read-out: hSST2 cAMP Avg EC50. The procedure, abridged:
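Agonism scored as loss of NKH477 (1.6 μM)-driven cAMP, with IBMX present, after 20 min, 37° C. exposure of stably transfected CHO-K1 cells to compound dilutions (typically 0-10,000 nM). Lysates read by time-resolved FRET; cAMP interpolated from standard curve and EC50 derived.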

In assay [2] the test system is NCI-H524 (ATCC) human small cell lung cancer cells. Conditions: 2 h. The procedure, abridged:
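CellTiter-Glo luminescence after a 2 h SMDC pulse (top dose 1 uM, 2-fold dilutions, 11 points), medium wash, then 70 h recovery. Cells were seeded at 5,000/well and dosed 24 h later. % inhibition vs control gave IC50 via four-parameter fit.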

Another assay concerns the target T2, SST2 (Homo sapiens, UniProt P30874).
T2 construct: host or cells: PathHunter CHO-K1 SST2 cells
Nature of the assay: PathHunter CHO-K1 SST2 internalization assay. The following applies: PathHunter CHO-K1 SST2, 90 min; read-out: Internalization EC50. The method, boiled down: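 IC50 comes from four-parameter curves on background-corrected duplicates of Beta-Glo luminescence, read after 60 min at room temperature in the dark. Before that, CHO-K1 SST2 internalization cells (48 h post-seeding) received SMDC as eleven threefold dilutions, 10 uM highest final, for 90 min at 37 C.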

T1 sequence (P30874 whole entry): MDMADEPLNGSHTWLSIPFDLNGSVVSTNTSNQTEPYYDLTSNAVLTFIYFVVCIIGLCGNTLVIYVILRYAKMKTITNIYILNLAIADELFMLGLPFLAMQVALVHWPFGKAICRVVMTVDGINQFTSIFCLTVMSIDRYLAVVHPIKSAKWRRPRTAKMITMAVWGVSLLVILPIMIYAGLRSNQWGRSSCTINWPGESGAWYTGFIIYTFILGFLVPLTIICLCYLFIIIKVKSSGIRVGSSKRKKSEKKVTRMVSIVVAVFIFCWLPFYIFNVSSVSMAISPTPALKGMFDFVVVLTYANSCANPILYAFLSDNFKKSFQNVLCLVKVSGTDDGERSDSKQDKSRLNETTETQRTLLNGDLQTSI
T2 sequence (P30874 whole entry): as above

In general, EC50 refers to the concentration that produces a half-maximal response. `CC[C@H](C)[C@@H]([C@@H](CC(=O)N1CCC[C@H]1[C@H](OC)[C@@H](C)C(=O)N[C@H](C)[C@@H](O)c1ccccc1)OC)N(C)C(=O)[C@@H](NC(=O)[C@H](C(C)C)N(C)C(=O)OCc1ccc(NC(=O)[C@H](CCCNC(N)=O)NC(=O)[C@@H](NC(=O)[C@H](CCC(=O)O)NC(=O)[C@H](CCC(=O)O)NC(=O)CCOCCOCCOCCOCCC(=O)NCCNc2ncc(-c3cc(C)cc(F)c3)c(N3CCC(N)CC3)c2-c2nc3ccc(Cl)cc3[nH]2)C(C)C)cc1)C(C)C` [Compound 110] (X4-EEV[Cit][PABC][NMeV]V[Dil][Dolaproine]-X2): the EC50 came to 0.57 nM in assay [1], 110 nM in assay [2] and 13 nM on SST2.

Take `CC[C@H](C)[C@@H]([C@@H](CC(=O)N1CCC[C@H]1[C@H](OC)[C@@H](C)C(=O)N[C@H](C)[C@@H](O)c1ccccc1)OC)N(C)C(=O)[C@@H](NC(=O)[C@H](C(C)C)N(C)C(=O)OCc1ccc(NC(=O)[C@H](CCCNC(N)=O)NC(=O)[C@@H](NC(=O)CNC(=O)[C@H](CCC(=O)O)NC(=O)[C@H](CCC(=O)O)NC(=O)CCOCCC(=O)NCCNc2ncc(-c3cc(C)cc(F)c3)c(N3CCC(N)CC3)c2-c2nc3ccc(Cl)cc3[nH]2)C(C)C)cc1)C(C)C` [Compound 111] (X1-EEGV[Cit][PABC][NMeV]V[Dil][Dolaproine]-X2): the concentration giving a half-maximal response (EC50) worked out at 1.2 nM in assay [1], 360 nM in assay [2] and 22 nM at SST2.

Consider `CC[C@H](C)[C@@H]([C@@H](CC(=O)N1CCC[C@H]1[C@H](OC)[C@@H](C)C(=O)N[C@H](C)[C@@H](O)c1ccccc1)OC)N(C)C(=O)[C@@H](NC(=O)[C@H](C(C)C)N(C)C(=O)OCc1ccc(NC(=O)[C@H](CCCNC(N)=O)NC(=O)[C@@H](NC(=O)[C@H](CCC(N)=O)NC(=O)CCOCCC(=O)NCCNc2ncc(-c3cc(C)cc(F)c3)c(N3CCC(N)CC3)c2-c2nc3ccc(Cl)cc3[nH]2)C(C)C)cc1C(N)=O)C(C)C` [Compound 112], for which the results for the EC50 (in assay [1]; in assay [2]; on SST2) were 0.16 nM, 10 nM and 2.9 nM, respectively.

`CC[C@H](C)[C@@H]([C@@H](CC(=O)N1CCC[C@H]1[C@H](OC)[C@@H](C)C(=O)N[C@H](C)[C@@H](O)c1ccccc1)OC)N(C)C(=O)[C@@H](NC(=O)[C@H](C(C)C)N(C)C(=O)OCc1ccc(NC(=O)[C@H](CCCNC(N)=O)NC(=O)[C@@H](NC(=O)[C@H](CCC(=O)O)NC(=O)[C@H](CS(=O)(=O)O)NC(=O)CCOCCC(=O)NCCNc2ncc(-c3cc(C)cc(F)c3)c(N3CCC(N)CC3)c2-c2nc3ccc(Cl)cc3[nH]2)C(C)C)cc1)C(C)C` [Compound 113] (X1-[Cya]EV[Cit][PABC][NMeV]V[Dil][Dolaproine]-X2): the figures for the concentration giving a half-maximal response (EC50) (in assay [1]; in assay [2]; at SST2) were 0.33 nM, 200 nM and 30 nM, respectively.

Take `CC[C@H](C)[C@@H]([C@@H](CC(=O)N1CCC[C@H]1[C@H](OC)[C@@H](C)C(=O)N[C@H](C)[C@@H](O)c1ccccc1)OC)N(C)C(=O)[C@@H](NC(=O)[C@H](C(C)C)N(C)C(=O)OCc1ccc(NC(=O)[C@H](CCCNC(N)=O)NC(=O)[C@@H](NC(=O)[C@H](CS(=O)(=O)O)NC(=O)[C@H](CCC(=O)O)NC(=O)CCOCCOCCOCCOCCC(=O)NCCNc2ncc(-c3cc(C)cc(F)c3)c(N3CCC(N)CC3)c2-c2nc3ccc(Cl)cc3[nH]2)C(C)C)cc1)C(C)C` [Compound 114] (X4-E[Cya]V[Cit][PABC][NMeV]V[Dil][Dolaproine]-X2): the figures for the EC50 (in assay [1]; in assay [2]; on SST2) were 0.22 nM, 100 nM and 10 nM, respectively.

Consider `CC[C@H](C)[C@@H]([C@@H](CC(=O)N1CCC[C@H]1[C@H](OC)[C@@H](C)C(=O)N[C@H](C)[C@@H](O)c1ccccc1)OC)N(C)C(=O)[C@@H](NC(=O)[C@H](C(C)C)N(C)C(=O)OCc1ccc(NC(=O)[C@H](C)NC(=O)[C@@H](NC(=O)[C@H](CCC(=O)O)NC(=O)CCOCCC(=O)NCCNc2ncc(-c3cc(C)cc(F)c3)c(N3CCC(N)CC3)c2-c2nc3ccc(Cl)cc3[nH]2)C(C)C)cc1C(=O)NCCN)C(C)C` [Compound 116], for which the EC50 in assay [1] is 0.1 nM; in assay [2], 6.6 nM; on SST2, 3.9 nM.

As for `CC[C@H](C)[C@@H]([C@@H](CC(=O)N1CCC[C@H]1[C@H](OC)[C@@H](C)C(=O)N[C@H](C)[C@@H](O)c1ccccc1)OC)N(C)C(=O)[C@@H](NC(=O)[C@H](C(C)C)N(C)C(=O)OCc1ccc(NC(=O)[C@H](C)NC(=O)[C@@H](NC(=O)[C@H](CS(=O)(=O)O)NC(=O)CCOCCC(=O)NCCNc2ncc(-c3cc(C)cc(F)c3)c(N3CCC(N)CC3)c2-c2nc3ccc(Cl)cc3[nH]2)C(C)C)cc1C(=O)NCCN)C(C)C` [Compound 117], the EC50 stood at 0.081 nM in assay [1], 3.7 nM in assay [2] and 2.6 nM at SST2.

In the case of `CC[C@H](C)[C@@H]([C@@H](CC(=O)N1CCC[C@H]1[C@H](OC)[C@@H](C)C(=O)N[C@H](C)[C@@H](O)c1ccccc1)OC)N(C)C(=O)[C@@H](NC(=O)[C@H](C(C)C)N(C)C(=O)OCc1ccc(NC(=O)[C@H](C)NC(=O)[C@@H](NC(=O)[C@H](CCC(N)=O)NC(=O)CCOCCC(=O)NCCNc2ncc(-c3cc(C)cc(F)c3)c(N3CCC(N)CC3)c2-c2nc3ccc(Cl)cc3[nH]2)C(C)C)cc1C(=O)NCCN)C(C)C` [Compound 118], the EC50 in assay [1] is 0.068 nM; in assay [2], 0.65 nM; on SST2, 3.8 nM.

`CC[C@H](C)[C@@H]([C@@H](CC(=O)N1CCC[C@H]1[C@H](OC)[C@@H](C)C(=O)N[C@H](C)[C@@H](O)c1ccccc1)OC)N(C)C(=O)[C@@H](NC(=O)[C@H](C(C)C)N(C)C(=O)OCc1ccc(NC(=O)[C@H](CCCNC(N)=O)NC(=O)[C@@H](NC(=O)[C@H](CCC(N)=O)NC(=O)[C@H](CCC(=O)O)NC(=O)CCOCCOCCOCCOCCC(=O)NCCNc2ncc(-c3cc(C)cc(F)c3)c(N3CCC(N)CC3)c2-c2nc3ccc(Cl)cc3[nH]2)C(C)C)cc1)C(C)C` [Compound 119] (X4-EQV[Cit][PABC][NMeV]V[Dil][Dolaproine]-X2): the EC50 in assay [1] was 0.14 nM; in assay [2], 16 nM; on SST2 it was 5.4 nM.

Regarding `CC[C@H](C)[C@@H]([C@@H](CC(=O)N1CCC[C@H]1[C@H](OC)[C@@H](C)C(=O)N[C@H](C)[C@@H](O)c1ccccc1)OC)N(C)C(=O)[C@@H](NC(=O)[C@H](C(C)C)N(C)C(=O)OCc1ccc(NC(=O)[C@H](C)NC(=O)[C@@H](NC(=O)[C@H](CCC(=O)O)NC(=O)CCCCCC(=O)NCCNc2ncc(-c3cc(C)cc(F)c3)c(N3CCC(N)CC3)c2-c2nc3ccc(Cl)cc3[nH]2)C(C)C)cc1C(=O)NCCN)C(C)C` [Compound 120], the EC50 in assay [1] amounted to 0.19 nM; in assay [2], 2.4 nM; on SST2, 2.7 nM.

For `CC[C@H](C)[C@@H]([C@@H](CC(=O)N1CCC[C@H]1[C@H](OC)[C@@H](C)C(=O)N[C@H](C)[C@@H](O)c1ccccc1)OC)N(C)C(=O)[C@@H](NC(=O)[C@H](C(C)C)N(C)C(=O)OCc1ccc(NC(=O)[C@H](C)NC(=O)[C@@H](NC(=O)[C@H](CCC(N)=O)NC(=O)CCCCCC(=O)NCCNc2ncc(-c3cc(C)cc(F)c3)c(N3CCC(N)CC3)c2-c2nc3ccc(Cl)cc3[nH]2)C(C)C)cc1C(=O)NCCN)C(C)C` [Compound 121], the 50% effective concentration (EC50) in assay [1] stood at 0.45 nM; in assay [2], 0.62 nM; on SST2 it was 3 nM.

`CC[C@H](C)[C@@H]([C@@H](CC(=O)N1CCC[C@H]1[C@H](OC)[C@@H](C)C(=O)N[C@H](C)[C@@H](O)c1ccccc1)OC)N(C)C(=O)[C@@H](NC(=O)[C@H](C(C)C)N(C)C(=O)OCc1ccc(NC(=O)[C@H](CCCNC(N)=O)NC(=O)[C@@H](NC(=O)CCOCCC(=O)NCCNc2ncc(-c3cc(C)cc(F)c3)c(N3CCC(N)CC3)c2-c2nc3ccc(Cl)cc3[nH]2)C(C)C)cc1C(N)=O)C(C)C` [Compound 122]: the EC50 in assay [1] was found to be 0.18 nM; in assay [2] it was 7.9 nM; on SST2, 3.8 nM.

As to `CC[C@H](C)[C@@H]([C@@H](CC(=O)N1CCC[C@H]1[C@H](OC)[C@@H](C)C(=O)N[C@H](C)[C@@H](O)c1ccccc1)OC)N(C)C(=O)[C@@H](NC(=O)[C@H](C(C)C)N(C)C(=O)OCc1ccc(NC(=O)[C@H](CCCNC(N)=O)NC(=O)[C@@H](NC(=O)CCOCCOCCOCCOCCC(=O)NCCNc2ncc(-c3cc(C)cc(F)c3)c(N3CCC(N)CC3)c2-c2nc3ccc(Cl)cc3[nH]2)C(C)C)cc1C(N)=O)C(C)C` [Compound 123], the concentration for a half-maximal effect (EC50) in assay [1] is 0.13 nM; in assay [2], 18 nM; on SST2, 7 nM.

In the case of `CC[C@H](C)[C@@H]([C@@H](CC(=O)N1CCC[C@H]1[C@H](OC)[C@@H](C)C(=O)N[C@H](C)[C@@H](O)c1ccccc1)OC)N(C)C(=O)[C@@H](NC(=O)[C@H](C(C)C)N(C)C(=O)OCc1ccc(NC(=O)[C@H](CCCNC(N)=O)NC(=O)[C@@H](NC(=O)CCOCCOCCOCCOCCC(=O)NCCNc2ncc(-c3cc(C)cc(F)c3)c(N3CCC(N)CC3)c2-c2nc3ccc(Cl)cc3[nH]2)C(C)C)cc1C(=O)NCC(N)=O)C(C)C` [Compound 124], the concentration for a half-maximal effect (EC50) in assay [1] is 0.16 nM; in assay [2] it was 5.3 nM; at SST2, 5.6 nM.

Regarding `CC[C@H](C)[C@@H]([C@@H](CC(=O)N1CCC[C@H]1[C@H](OC)[C@@H](C)C(=O)N[C@H](C)[C@@H](O)c1ccccc1)OC)N(C)C(=O)[C@@H](NC(=O)[C@H](C(C)C)N(C)C(=O)OCc1ccc(NC(=O)[C@H](CCCNC(N)=O)NC(=O)[C@@H](NC(=O)CCOCCC(=O)NCCNc2ncc(-c3cc(C)cc(F)c3)c(N3CCC(N)CC3)c2-c2nc3ccc(Cl)cc3[nH]2)C(C)C)cc1C(=O)NCC(N)=O)C(C)C` [Compound 125], the EC50 in assay [1] was 0.17 nM; in assay [2], 3.4 nM; at SST2 it was 3.9 nM.
